Values of other authors in US20090202442A1, “Enerceutical activation of the alternative cellular energy (ACE) pathway in therapy of diseases” (priority 2008, published 2009).

Test system: herpes simplex virus (HSV), herpes zoster virus (HZV) and human papillomavirus (HPV) infections

Cc1cc2nc3ccc(N(C)C)cc3nc2cc1N.Cl [neutral red]
healing of active skin lesions (neutral red dye triggered UV fluorescence, HSV, HZV, HPV lesions): successfully used in expediting the healing | future outbreaks of recurrent herpes (patients with prior history of recurrent herpes, treated when no active lesion present): successfully used in preventing future outbreaks
